From paper PMC10498358 (2023)

How the values were obtained:
[1] = test system: p(dAdT)2 (poly dAdT–poly dAdT) (DNA, polymer) AT; test: fluorescence titration, Scatchard fit; conditions: I = 0.05 M (sodium cacodylate); sodium cacodylate buffer, pH 7.0; polynucleotide concentration as phosphates; n fixed at 0.2; per base
[2] = test system: p(dGdC)2 (poly dGdC–poly dGdC) (DNA, polymer) GC; test: fluorescence titration, Scatchard fit; conditions: I = 0.05 M (sodium cacodylate); sodium cacodylate buffer, pH 7.0; polynucleotide concentration as phosphates; n fixed at 0.2; per base
[3] = test system: pApU (poly A–poly U) (RNA, polymer) A/U; test: UV thermal denaturation at 260 nm; conditions: I = 0.05 M (sodium cacodylate); sodium cacodylate buffer, pH 7.0; r = [compound]/[RNA] = 0.3; error ±0.5 °C; per base
[4] = test system: pApU (poly A–poly U) (RNA, polymer) A/U; test: fluorescence titration, Scatchard fit; conditions: I = 0.05 M (sodium cacodylate); sodium cacodylate buffer, pH 7.0; polynucleotide concentration as phosphates; n fixed at 0.2; per base

Row | Compound | log K [1] | log K [2] | ΔTm [3] | log K [4]
1 | COc1c2cc(N)cc1Cc1cc(C(C)(C)C)cc(c1OCc1nccn1C)Cc1cc(NC(=O)CCCc3ccc4ccc5cccc6ccc3c4c56)cc(c1OC)Cc1cc(C(C)(C)C)cc(c1OCc1nccn1C)C2 | 7.4 | 5.7 | +1 °C | 6.4
2 | COc1c2cc(NC(=O)CCCc3ccc4ccc5cccc6ccc3c4c56)cc1Cc1cc(C(C)(C)C)cc(c1OCc1nccn1C)Cc1cc(NC(=O)CCCc3ccc4ccc5cccc6ccc3c4c56)cc(c1OC)Cc1cc(C(C)(C)C)cc(c1OCc1nccn1C)C2 | 6.6 | 6.9 | -1 °C | 7.2
